Measured values published in PMC8026479 (Cancer Chemotherapy and Pharmacology, 2021).

How the values were obtained:
[1] = cited from earlier work
[2] = test system: transition rate constant from G1 to cycling for HSPCs; assay: Semi-mechanistic multi-compartment PK/PD model of hematopoiesis; set-up: species or system mouse, rat, and dog; conditions: conservative modification of literature estimate; elimination rate constant 1/h
Description: Owing to the invasive nature of the PD marker collection (i.e. bone marrow aspiration), a semi-mechanistic PK/PD model based on animal PK/PD data and human PK data was developed to guide the selection of an optimal dose level for bone marrow aspiration in humans during dose escalation in the Phase I first-in-human study. The model was constructed using PK data from four species (mouse, rat, dog, and human) and PD data from three species (mouse, rat, and dog; Online Resources 1 and 2).
The PK/multi-compartment PD model was based on a myelosuppression model previously published by Friberg et al., with modifications. […] In the model used in the current study, stem cells and progenitor cells were separated into two compartments, with experimental data measured for each compartment. […] Another important deviation from the Friberg model was the mechanism postulated for the homeostasis of the […] (PMNs). We postulated that the feedback mechanism has a set point target and that deviations from that target would accelerate (in the case of too few PMNs) or decelerate (in the case of too many PMNs) the transition of G1-phase cells to S-phase cells in the stem cell population.
The model was constructed in two stages. First, preclinical PK data (e.g. doses, routes, and schedule of administration, observed concentrations) were compiled and modeled by allometric scaling. A sequential PK/PD modeling approach (population PK parameters and data approach) was then employed in which a semi-mechanistic PD model with various physiological compartments was created, and specific assumptions entered (Online Resource 3). Traditional forward addition/backward elimination was used for PK modeling. […] Many parameters in this complex model could not be estimated and were fixed either to the literature values or values selected on the basis of discussions with domain experts and sensitivity analysis. In preclinical animal models, the PD analysis modeled bone marrow cells positive for 5′-ethynyl-2′-deoxyuridine (EdU) and peripheral neutrophil counts simultaneously. […]

O=c1[nH]cc(F)c(=O)[nH]1 [5-FU, 5-fluorouracil, reference compound]
half-life of 5-FU, literature estimate [1]: 8 to 20 min
pharmacologic activity half-life of 5-FU [2]: 42 min
